From the NIST ThermoML archive (doi:10.1007/s10765-019-2537-x)
“And” between values parts separate entries of the source, which are not always exact repeats. Equal values may be shown once. ± gives the expanded uncertainty stated by the source.

Settings: Liquid, transient hot wire

SMILES: CCCCCCCCCCCCCCC [pentadecane]
- thermal conductivity (318.28 K, 1420 kPa): 0.1369 ± 0.04 W/m/K
- thermal conductivity (318.31 K, 1420 kPa): 0.138 ± 0.04 W/m/K
- thermal conductivity (318.36 K, 15320 kPa): 0.1419 ± 0.04 W/m/K
- thermal conductivity (318.4 K, 1420 kPa): 0.1376 ± 0.04 W/m/K
- thermal conductivity (318.4 K, 21080 kPa): 0.1429 ± 0.04 W/m/K
- thermal conductivity (318.42 K, 21080 kPa): 0.1432 ± 0.04 W/m/K
- thermal conductivity (318.44 K, 15320 kPa): 0.1408 ± 0.04 W/m/K and 0.1415 ± 0.04 W/m/K
- thermal conductivity (318.45 K, 21080 kPa): 0.1432 ± 0.04 W/m/K
- thermal conductivity (318.49 K, 5220 kPa): 0.1386 ± 0.04 W/m/K
- thermal conductivity (318.5 K, 10340 kPa): 0.1403 ± 0.04 W/m/K
- thermal conductivity (318.52 K, 5220 kPa): 0.1382 ± 0.04 W/m/K
- thermal conductivity (318.54 K, 10340 kPa): 0.139 ± 0.04 W/m/K
- thermal conductivity (318.56 K, 10340 kPa): 0.1394 ± 0.04 W/m/K
- thermal conductivity (318.59 K, 5220 kPa): 0.1377 ± 0.04 W/m/K
- thermal conductivity (336.96 K, 20240 kPa): 0.1393 ± 0.04 W/m/K
- thermal conductivity (337.02 K, 15360 kPa): 0.1403 ± 0.04 W/m/K
- thermal conductivity (337.04 K, 5660 kPa): 0.1338 ± 0.04 W/m/K
- thermal conductivity (337.09 K, 5660 kPa): 0.1353 ± 0.04 W/m/K
- thermal conductivity (337.1 K, 20240 kPa): 0.1399 ± 0.04 W/m/K
- thermal conductivity (337.13 K, 20240 kPa): 0.1401 ± 0.04 W/m/K
- thermal conductivity (337.14 K, 5660 kPa): 0.1361 ± 0.04 W/m/K
- thermal conductivity (337.14 K, 15360 kPa): 0.1368 ± 0.04 W/m/K
- thermal conductivity (337.18 K, 1270 kPa): 0.1332 ± 0.04 W/m/K
- thermal conductivity (337.2 K, 15360 kPa): 0.1372 ± 0.04 W/m/K
- thermal conductivity (337.22 K, 1270 kPa): 0.132 ± 0.04 W/m/K
- thermal conductivity (337.24 K, 1270 kPa): 0.1338 ± 0.04 W/m/K
- thermal conductivity (337.25 K, 10510 kPa): 0.1368 ± 0.04 W/m/K
- thermal conductivity (337.28 K, 10510 kPa): 0.1356 ± 0.04 W/m/K
- thermal conductivity (356.45 K, 5190 kPa): 0.1334 ± 0.04 W/m/K
- thermal conductivity (356.57 K, 5190 kPa): 0.1301 ± 0.04 W/m/K
- thermal conductivity (356.61 K, 5190 kPa): 0.131 ± 0.04 W/m/K
- thermal conductivity (356.68 K, 10160 kPa): 0.1329 ± 0.04 W/m/K
- thermal conductivity (356.7 K, 1040 kPa): 0.1284 ± 0.04 W/m/K
- thermal conductivity (356.71 K, 10160 kPa): 0.1307 ± 0.04 W/m/K
- thermal conductivity (356.72 K, 10160 kPa): 0.1314 ± 0.04 W/m/K
- thermal conductivity (356.74 K, 15190 kPa): 0.1321 ± 0.04 W/m/K
- thermal conductivity (356.75 K, 1040 kPa): 0.13 ± 0.04 W/m/K
- thermal conductivity (356.75 K, 20580 kPa): 0.1355 ± 0.04 W/m/K
- thermal conductivity (356.79 K, 20580 kPa): 0.1377 ± 0.04 W/m/K
- thermal conductivity (356.8 K, 15190 kPa): 0.132 ± 0.04 W/m/K
- thermal conductivity (356.83 K, 15190 kPa): 0.1341 ± 0.04 W/m/K
- thermal conductivity (356.9 K, 20580 kPa): 0.1346 ± 0.04 W/m/K
- thermal conductivity (377.3 K, 5560 kPa): 0.1275 ± 0.04 W/m/K
- thermal conductivity (377.31 K, 5560 kPa): 0.1262 ± 0.04 W/m/K
- thermal conductivity (377.33 K, 10240 kPa): 0.1296 ± 0.04 W/m/K
- thermal conductivity (377.39 K, 5560 kPa): 0.1272 ± 0.04 W/m/K
- thermal conductivity (377.4 K, 10240 kPa): 0.1302 ± 0.04 W/m/K
- thermal conductivity (377.44 K, 1420 kPa): 0.1248 ± 0.04 W/m/K
- thermal conductivity (377.46 K, 10240 kPa): 0.1284 ± 0.04 W/m/K
- thermal conductivity (377.52 K, 20480 kPa): 0.131 ± 0.04 W/m/K
- thermal conductivity (377.53 K, 1420 kPa): 0.1234 ± 0.04 W/m/K
- thermal conductivity (377.6 K, 1420 kPa): 0.1238 ± 0.04 W/m/K
- thermal conductivity (377.6 K, 20480 kPa): 0.1304 ± 0.04 W/m/K
- thermal conductivity (377.61 K, 20480 kPa): 0.1326 ± 0.04 W/m/K
- thermal conductivity (377.62 K, 15010 kPa): 0.1288 ± 0.04 W/m/K
- thermal conductivity (377.7 K, 15010 kPa): 0.1284 ± 0.04 W/m/K
- thermal conductivity (377.73 K, 15010 kPa): 0.1274 ± 0.04 W/m/K
- thermal conductivity (396.74 K, 20460 kPa): 0.1297 ± 0.04 W/m/K
- thermal conductivity (396.83 K, 20460 kPa): 0.1291 ± 0.04 W/m/K
- thermal conductivity (397.07 K, 20460 kPa): 0.1276 ± 0.04 W/m/K
- thermal conductivity (397.22 K, 10360 kPa): 0.1224 ± 0.04 W/m/K
- thermal conductivity (397.22 K, 15080 kPa): 0.1248 ± 0.04 W/m/K
- thermal conductivity (397.24 K, 10360 kPa): 0.1252 ± 0.04 W/m/K
- thermal conductivity (397.31 K, 15080 kPa): 0.1229 ± 0.04 W/m/K
- thermal conductivity (397.32 K, 15100 kPa): 0.1242 ± 0.04 W/m/K
- thermal conductivity (397.38 K, 10410 kPa): 0.1225 ± 0.04 W/m/K
- thermal conductivity (397.42 K, 1330 kPa): 0.1182 ± 0.04 W/m/K
- thermal conductivity (397.44 K, 5360 kPa): 0.1209 ± 0.04 W/m/K
- thermal conductivity (397.47 K, 1330 kPa): 0.1188 ± 0.04 W/m/K
- thermal conductivity (397.49 K, 1330 kPa): 0.1165 ± 0.04 W/m/K
- thermal conductivity (397.52 K, 5360 kPa): 0.1202 ± 0.04 W/m/K
- thermal conductivity (397.57 K, 5360 kPa): 0.1176 ± 0.04 W/m/K
- thermal conductivity (417.11 K, 5290 kPa): 0.121 ± 0.04 W/m/K
- thermal conductivity (417.13 K, 20250 kPa): 0.1228 ± 0.04 W/m/K
- thermal conductivity (417.16 K, 15230 kPa): 0.1204 ± 0.04 W/m/K
- thermal conductivity (417.19 K, 15230 kPa): 0.1227 ± 0.04 W/m/K
- thermal conductivity (417.26 K, 15230 kPa): 0.1223 ± 0.04 W/m/K
- thermal conductivity (417.27 K, 10550 kPa): 0.1227 ± 0.04 W/m/K
- thermal conductivity (417.3 K, 20250 kPa): 0.1195 ± 0.04 W/m/K
- thermal conductivity (417.36 K, 1130 kPa): 0.1134 ± 0.04 W/m/K
- thermal conductivity (417.37 K, 1130 kPa): 0.115 ± 0.04 W/m/K
- thermal conductivity (417.47 K, 10430 kPa): 0.1185 ± 0.04 W/m/K
- thermal conductivity (417.48 K, 1130 kPa): 0.1123 ± 0.04 W/m/K
- thermal conductivity (417.5 K, 10430 kPa): 0.1178 ± 0.04 W/m/K
- thermal conductivity (436.73 K, 20320 kPa): 0.1172 ± 0.04 W/m/K
- thermal conductivity (436.78 K, 20320 kPa): 0.1187 ± 0.04 W/m/K
- thermal conductivity (436.9 K, 10760 kPa): 0.1134 ± 0.04 W/m/K
